Experiment: xn = mol fraction of the nth substance listed
Settings: Liquid; for viscosity: 101 kPa, Capillary tube (Ostwald / Ubbelohde) method; for mass density: 101.3 kPa

CC(C)(C)Cl [2-chloro-2-methylpropane] + CC(C)OC(C)C
Settings	mass density [kg/m3]	viscosity [mPa·s]
283.15 K, x1 = 0.049	738.51	0.3693
283.15 K, x1 = 0.0996	743.477	0.3746
283.15 K, x1 = 0.1991	753.625	0.386
283.15 K, x1 = 0.3212	766.738	0.4025
283.15 K, x1 = 0.4189	777.752	0.4183
283.15 K, x1 = 0.5148	789.053	0.4365
283.15 K, x1 = 0.6213	802.211	0.4606
283.15 K, x1 = 0.7152	814.386	0.4862
283.15 K, x1 = 0.8138	827.842	0.5182
283.15 K, x1 = 0.9079	841.347	0.555
283.15 K, x1 = 0.9552	848.401	0.5761
283.15 K, x1 = 1	855.249	0.598
288.15 K, x1 = 0.049	733.338	0.3531
288.15 K, x1 = 0.0996	738.271	0.358
288.15 K, x1 = 0.1991	748.35	0.3683
288.15 K, x1 = 0.3212	761.373	0.3827
288.15 K, x1 = 0.4189	772.308	0.3963
288.15 K, x1 = 0.5148	783.527	0.412
288.15 K, x1 = 0.6213	796.59	0.4328
288.15 K, x1 = 0.7152	808.683	0.4549
288.15 K, x1 = 0.8138	822.038	0.4829
288.15 K, x1 = 0.9079	835.446	0.5154
288.15 K, x1 = 0.9552	842.442	0.5342
288.15 K, x1 = 1	849.243	0.5538
293.15 K, x1 = 0.049	728.121	0.3381
293.15 K, x1 = 0.0996	733.024	0.3425
293.15 K, x1 = 0.1991	743.024	0.3515
293.15 K, x1 = 0.3212	755.959	0.3641
293.15 K, x1 = 0.4189	766.815	0.376
293.15 K, x1 = 0.5148	777.959	0.3894
293.15 K, x1 = 0.6213	790.929	0.4075
293.15 K, x1 = 0.7152	802.935	0.4268
293.15 K, x1 = 0.8138	816.186	0.4512
293.15 K, x1 = 0.9079	829.489	0.4796
293.15 K, x1 = 0.9552	836.437	0.4962
293.15 K, x1 = 1	843.191	0.5135
298.15 K, x1 = 0.049	722.867	0.3217
298.15 K, x1 = 0.0996	727.738	0.3258
298.15 K, x1 = 0.1991	737.666	0.3342
298.15 K, x1 = 0.3212	750.506	0.3458
298.15 K, x1 = 0.4189	761.288	0.3564
298.15 K, x1 = 0.5148	772.351	0.3686
298.15 K, x1 = 0.6213	785.231	0.3845
298.15 K, x1 = 0.7152	797.145	0.4014
298.15 K, x1 = 0.8138	810.301	0.4229
298.15 K, x1 = 0.9079	823.502	0.4476
298.15 K, x1 = 0.9552	830.397	0.4619
298.15 K, x1 = 1	837.096	0.4768
303.15 K, x1 = 0.049	717.578	0.304
303.15 K, x1 = 0.0996	722.412	0.308
303.15 K, x1 = 0.1991	732.264	0.3164
303.15 K, x1 = 0.3212	745.013	0.3277
303.15 K, x1 = 0.4189	755.716	0.3379
303.15 K, x1 = 0.5148	766.702	0.3492
303.15 K, x1 = 0.6213	779.484	0.3639
303.15 K, x1 = 0.7152	791.308	0.3791
303.15 K, x1 = 0.8138	804.365	0.3979
303.15 K, x1 = 0.9079	817.467	0.4191
303.15 K, x1 = 0.9552	824.312	0.4313
303.15 K, x1 = 1	830.958	0.4438
308.15 K, x1 = 0.049	712.24	0.2892
308.15 K, x1 = 0.0996	717.039	0.2928
308.15 K, x1 = 0.1991	726.821	0.3006
308.15 K, x1 = 0.3212	739.479	0.3115
308.15 K, x1 = 0.4189	750.102	0.3216
308.15 K, x1 = 0.5148	761.005	0.3327
308.15 K, x1 = 0.6213	773.688	0.3468
308.15 K, x1 = 0.7152	785.436	0.3613
308.15 K, x1 = 0.8138	798.392	0.3787
308.15 K, x1 = 0.9079	811.393	0.398
308.15 K, x1 = 0.9552	818.179	0.4087
308.15 K, x1 = 1	824.772	0.4196
313.15 K, x1 = 0.049	706.856	0.2751
313.15 K, x1 = 0.0996	711.61	0.2783
313.15 K, x1 = 0.1991	721.328	0.2856
313.15 K, x1 = 0.3212	733.893	0.2963
313.15 K, x1 = 0.4189	744.44	0.3061
313.15 K, x1 = 0.5148	755.257	0.3171
313.15 K, x1 = 0.6213	767.848	0.3306
313.15 K, x1 = 0.7152	779.502	0.3436
313.15 K, x1 = 0.8138	792.362	0.3586
313.15 K, x1 = 0.9079	805.256	0.3741
313.15 K, x1 = 0.9552	811.996	0.3824
313.15 K, x1 = 1	818.536	0.3904

CCC(C)Cl (stereo not given) [2-chlorobutane] + CC(C)OC(C)C
Settings	mass density [kg/m3]	viscosity [mPa·s]
283.15 K, x1 = 0.0519	740.159	0.3683
283.15 K, x1 = 0.0988	745.897	0.3716
283.15 K, x1 = 0.2006	758.792	0.3796
283.15 K, x1 = 0.3211	774.756	0.3899
283.15 K, x1 = 0.4201	788.575	0.3991
283.15 K, x1 = 0.532	804.971	0.4101
283.15 K, x1 = 0.6244	819.223	0.4199
283.15 K, x1 = 0.726	835.602	0.431
283.15 K, x1 = 0.8163	850.907	0.4413
283.15 K, x1 = 0.8817	862.411	0.4489
283.15 K, x1 = 0.9634	877.39	0.4587
283.15 K, x1 = 1	884.34	0.4631
288.15 K, x1 = 0.0519	734.981	0.3519
288.15 K, x1 = 0.0988	740.712	0.3549
288.15 K, x1 = 0.2006	753.569	0.3621
288.15 K, x1 = 0.3211	769.483	0.3713
288.15 K, x1 = 0.4201	783.251	0.3795
288.15 K, x1 = 0.532	799.602	0.3894
288.15 K, x1 = 0.6244	813.814	0.398
288.15 K, x1 = 0.726	830.144	0.408
288.15 K, x1 = 0.8163	845.414	0.4172
288.15 K, x1 = 0.8817	856.901	0.424
288.15 K, x1 = 0.9634	871.819	0.4326
288.15 K, x1 = 1	878.756	0.4365
293.15 K, x1 = 0.0519	729.792	0.3371
293.15 K, x1 = 0.0988	735.485	0.34
293.15 K, x1 = 0.2006	748.303	0.3468
293.15 K, x1 = 0.3211	764.161	0.3555
293.15 K, x1 = 0.4201	777.889	0.3632
293.15 K, x1 = 0.532	–	0.3725
293.15 K, x1 = 0.6244	808.369	0.3806
293.15 K, x1 = 0.726	824.657	0.39
293.15 K, x1 = 0.8163	839.877	0.3987
293.15 K, x1 = 0.8817	851.332	0.4051
293.15 K, x1 = 0.9634	866.214	0.4131
293.15 K, x1 = 1	873.13	0.4167
298.15 K, x1 = 0.0519	724.535	0.321
298.15 K, x1 = 0.0988	730.22	0.3239
298.15 K, x1 = 0.2006	742.995	0.3306
298.15 K, x1 = 0.3211	758.802	0.3392
298.15 K, x1 = 0.4201	772.485	0.3467
298.15 K, x1 = 0.532	788.75	0.3559
298.15 K, x1 = 0.6244	802.882	0.3639
298.15 K, x1 = 0.726	819.123	0.3731
298.15 K, x1 = 0.8163	834.307	0.3817
298.15 K, x1 = 0.8817	845.724	0.3879
298.15 K, x1 = 0.9634	860.57	0.3959
298.15 K, x1 = 1	867.474	0.3993
303.15 K, x1 = 0.0519	719.276	0.3033
303.15 K, x1 = 0.0988	724.919	0.3061
303.15 K, x1 = 0.2006	737.649	0.3127
303.15 K, x1 = 0.3211	753.411	0.3212
303.15 K, x1 = 0.4201	767.06	0.3286
303.15 K, x1 = 0.532	783.263	0.3375
303.15 K, x1 = 0.6244	797.355	0.3454
303.15 K, x1 = 0.726	813.555	0.3545
303.15 K, x1 = 0.8163	828.698	0.3628
303.15 K, x1 = 0.8817	840.084	0.369
303.15 K, x1 = 0.9634	854.895	0.3767
303.15 K, x1 = 1	861.779	0.38
308.15 K, x1 = 0.0519	713.939	0.2887
308.15 K, x1 = 0.0988	719.569	0.2915
308.15 K, x1 = 0.2006	732.261	0.2977
308.15 K, x1 = 0.3211	747.973	0.3058
308.15 K, x1 = 0.4201	761.571	0.3127
308.15 K, x1 = 0.532	777.737	0.3212
308.15 K, x1 = 0.6244	791.784	0.3287
308.15 K, x1 = 0.726	807.944	0.3374
308.15 K, x1 = 0.8163	823.046	0.3453
308.15 K, x1 = 0.8817	834.402	0.3511
308.15 K, x1 = 0.9634	849.179	0.3584
308.15 K, x1 = 1	856.044	0.3615
313.15 K, x1 = 0.0519	708.573	0.2752
313.15 K, x1 = 0.0988	714.181	0.2779
313.15 K, x1 = 0.2006	726.833	0.2838
313.15 K, x1 = 0.3211	742.484	0.2914
313.15 K, x1 = 0.4201	756.049	0.2981
313.15 K, x1 = 0.532	772.166	0.3062
313.15 K, x1 = 0.6244	786.18	0.3133
313.15 K, x1 = 0.726	802.287	0.3215
313.15 K, x1 = 0.8163	817.349	0.329
313.15 K, x1 = 0.8817	828.683	0.3345
313.15 K, x1 = 0.9634	843.42	0.3413
313.15 K, x1 = 1	850.266	0.3443
